{"source": "patent US10947558B2", "about": "“Compositions and methods for inducing resistance to soybean cyst nematode via RNAi” (priority 2015, dated 2021)", "tested_on": "C. elegans (N2 wild type)", "assay": "RNA interference in C. elegans by soaking L2 worms in HgRPS23 dsRNA (vitality/lethality)", "format": "in vivo", "conditions": "10 μM, positive control, after one day of soaking", "experimental": "The effectiveness of HgRPS23 siRNA in silencing the worm's ribosomal protein gene was tested in C. elegans, following the previously published protocols (Alkharouf et al., 2007, Peng et al., 2016) with modifications. A T7 promoter sequence (5′-TAATACGACTCACTATAG-3′; SEQ ID NO: 3) was added to the 5′ ends of both the forward and reverse primer to amplify the 225 bp of HgRPS23 from pRD64 by PCR. The amplified PCR product was used to produce the double stranded (ds) in vitro transcript by the MEGAscript®T7 kit (Ambion/Invitrogen, Calsbad, Calif., USA).\nThe wt N2 strain of C. elegans was obtained from the CGC (Caenorhabditis Genetics Center) and maintained on NGM (Nematode Growth Medium) plates (60 mm petri dishes) at room temperature. The worms were grown and synchronized using protocols from the WormBase (www.wormbase.org). The L2 worms were soaked in 100 μl M9 buffer (22 mM KH2PO4, 4.7 mM NH4Cl, 43.6 mM Na2HPO4 and 2.1 mM NaCl) containing 50 mM octopamine (Sigma, St. Louis, Mo., USA) to increase pharyngeal pumping and 2 mg/ml HgRPS23 dsRNA. The negative control L2 worms were treated by soaking in M9 buffer containing 50 mM octopamine only. The positive control L2 worms were soaked in M9 buffer containing 50 mM octopamine and 10 μM cycloheximide (Sigma, St. Louis, Mo., USA) as a translation inhibitor. C. elegans worms were treated in the wells of a 96-well plate on a gentle shaker. […]"}
{"smiles": "C[C@@H]1C[C@@H]([C@H](O)CC2CC(=O)NC(=O)C2)C(=O)[C@@H](C)C1", "note": "[cycloheximide]", "values": [{"measurement": "vitality rate of N2 worms", "value": "approximately 20%"}]}
